Values of other authors in patent US20130281394A1, “Chemosensory Receptor Ligand-Based Therapies” (ELCELYX THERAPEUTICS, INC., priority 2010, published 2013).
Marks after values point to notes of the source that are not given here.

Biological target: T1, sweet receptor (Homo sapiens, UniProt Q7RTX0+Q8TE23)
T1 sequence (Q8TE23 20-839): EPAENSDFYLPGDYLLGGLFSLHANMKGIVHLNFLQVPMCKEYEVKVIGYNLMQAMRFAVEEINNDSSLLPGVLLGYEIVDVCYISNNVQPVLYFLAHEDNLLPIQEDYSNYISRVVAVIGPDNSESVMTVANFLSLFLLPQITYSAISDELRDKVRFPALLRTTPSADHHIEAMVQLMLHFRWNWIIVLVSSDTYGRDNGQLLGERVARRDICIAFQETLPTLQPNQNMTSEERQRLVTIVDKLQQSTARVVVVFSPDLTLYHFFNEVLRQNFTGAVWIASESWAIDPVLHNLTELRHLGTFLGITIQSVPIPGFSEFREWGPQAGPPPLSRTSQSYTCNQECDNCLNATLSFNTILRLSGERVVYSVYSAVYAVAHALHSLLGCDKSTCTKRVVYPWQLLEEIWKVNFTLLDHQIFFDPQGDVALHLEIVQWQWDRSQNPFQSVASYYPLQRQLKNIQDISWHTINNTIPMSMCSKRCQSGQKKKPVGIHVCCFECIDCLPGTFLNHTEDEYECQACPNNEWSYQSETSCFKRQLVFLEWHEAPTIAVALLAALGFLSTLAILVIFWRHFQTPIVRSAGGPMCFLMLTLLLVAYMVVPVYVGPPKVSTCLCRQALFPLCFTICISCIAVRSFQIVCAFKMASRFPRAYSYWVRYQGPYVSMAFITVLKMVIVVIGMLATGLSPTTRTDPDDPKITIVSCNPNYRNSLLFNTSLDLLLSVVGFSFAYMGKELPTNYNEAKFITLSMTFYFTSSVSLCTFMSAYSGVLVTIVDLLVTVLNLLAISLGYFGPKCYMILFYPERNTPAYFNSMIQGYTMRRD
T1 sequence (Q7RTX0 21-852): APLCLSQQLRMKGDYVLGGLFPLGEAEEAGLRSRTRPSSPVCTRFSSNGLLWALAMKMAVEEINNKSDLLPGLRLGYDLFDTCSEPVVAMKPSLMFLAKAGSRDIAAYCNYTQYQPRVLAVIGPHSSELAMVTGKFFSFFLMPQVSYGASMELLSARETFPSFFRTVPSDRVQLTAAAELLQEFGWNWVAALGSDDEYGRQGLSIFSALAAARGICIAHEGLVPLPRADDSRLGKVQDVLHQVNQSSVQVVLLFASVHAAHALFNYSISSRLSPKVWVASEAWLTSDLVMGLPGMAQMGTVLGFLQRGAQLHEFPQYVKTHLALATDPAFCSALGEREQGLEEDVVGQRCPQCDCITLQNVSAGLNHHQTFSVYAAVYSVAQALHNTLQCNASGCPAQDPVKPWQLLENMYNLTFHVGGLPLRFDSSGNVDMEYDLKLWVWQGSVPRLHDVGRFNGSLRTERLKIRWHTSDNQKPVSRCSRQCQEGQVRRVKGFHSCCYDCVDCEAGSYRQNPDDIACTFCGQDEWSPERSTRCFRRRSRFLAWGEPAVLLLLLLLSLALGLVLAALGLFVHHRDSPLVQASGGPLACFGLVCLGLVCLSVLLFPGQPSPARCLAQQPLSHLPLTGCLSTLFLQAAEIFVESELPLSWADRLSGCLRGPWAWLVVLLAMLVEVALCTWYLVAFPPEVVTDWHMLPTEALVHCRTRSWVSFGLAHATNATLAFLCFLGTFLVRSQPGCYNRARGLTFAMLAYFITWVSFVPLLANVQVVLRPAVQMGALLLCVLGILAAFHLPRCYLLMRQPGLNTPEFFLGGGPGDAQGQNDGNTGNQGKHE
Settings: relative sweetness on a weight comparison basis to sucrose (= 1.0); ranges: varied with the concentration of sucrose

Row | Compound | Sweetness/potency
1 | Rebaudioside B | 150
2 | CC(=O)O[C@H]1C(=O)c2c(O)cc(O)cc2O[C@@H]1c1ccc(O)c(O)c1 [(2R,3R)-Dihydroquercetin 3-O-acetate] | 80
3 | Albiziasaponin B | 600
4 | Cyclocaryoside I | 250
5 | C[C@H](CC[C@@H](O[C@@H]1O[C@H](CO)[C@@H](O)[C@H](O)[C@H]1O[C@@H]1O[C@H](CO)[C@@H](O)[C@H](O)[C@H]1O)C(C)(C)O)[C@H]1CC[C@@]2(C)[C@H]3CC=C4[C@@H](CC[C@H](O[C@@H]5O[C@H](CO[C@@H]6O[C@H](CO)[C@@H](O)[C@H](O)[C@H]6O)[C@@H](O)[C@H](O)[C@H]5O)C4(C)C)[C@]3(C)[C@H](O)C[C@]12C [Mogroside IV] | 233-392^d
6 | C=C1C[C@@]23CC[C@H]4[C@@](C)(CCC[C@@]4(C)C(=O)O[C@@H]4O[C@H](CO)[C@@H](O)[C@H](O)[C@H]4O)[C@@H]2CC[C@]1(O[C@@H]1O[C@H](CO)[C@@H](O)[C@H](O)[C@H]1O)C3 [Rubusoside] | 115
7 | COc1ccc(C2Oc3cc(O)cc(O)c3C(=O)C2OC(C)=O)cc1O (centres unmarked) [Dihydroquercetin 3-O-acetate 4′-methyl ether] | 400
8 | C/C(=C\CC/C(C)=C/CO[C@@H]1O[C@H](CO)[C@@H](O)[C@H](O[C@@H]2O[C@@H](C)[C@H](O)[C@@H](O)[C@H]2O)[C@H]1O[C@@H]1O[C@@H](C)[C@H](O)[C@@H](O)[C@H]1O)CC/C=C(\C)CO[C@@H]1O[C@H](CO)[C@@H](O)[C@H](O[C@@H]2O[C@@H](C)[C@H](O)[C@@H](O)[C@H]2O)[C@H]1O[C@@H]1O[C@@H](C)[C@H](O)[C@@H](O)[C@H]1O [Mukurozioside IIb] | ca. 1
9 | CC1(C)C[C@H]2C3=CC[C@@H]4[C@@]5(C)CC[C@H](O[C@@H]6O[C@H](CO[C@@H]7OC[C@H](O)[C@H](O)[C@H]7O[C@@H]7OC[C@@H](O)[C@H](O)[C@H]7O)[C@@H](O)[C@H](O)[C@H]6O)C(C)(C)[C@@H]5CC[C@@]4(C)[C@]3(C)C[C@@H](O)[C@@]23C[C@@H]1OC3=O [Albiziasaponin A] | 5

The remaining lines, values ahead:

Row | Sweetness/potency | Compound
10 | 1,200-1,400^d | N[C@@H](C[C@@](O)(Cc1c[nH]c2ccccc12)C(=O)O)C(=O)O [Monatin]
11 | 54 | Scandenoside R6
12 | 1,600 | Thaumatin
13 | 300 | C[C@@H]1O[C@@H](O[C@H]2[C@H](Oc3cc(O)c(C(=O)CCc4ccc(O)cc4)c(O)c3)O[C@H](CO)[C@@H](O)[C@@H]2O)[C@H](O)[C@H](O)[C@H]1O [Naringin dihydrochalcone]
14 | 55 | C/C(=C\CO)CCC1=C(C=O)CC(OC2OCC(O)C(O)C2O)C2C(C)(CO)CCCC12C (centres unmarked) [Gaudichaudioside A]
15 | 220 | CC1(C(=O)O)C=C2C3CCC4C5(C=O)CCC(OC6OC(C(=O)O)C(O)C(O)C6OC6OCC(O)C(O)C6O)C(C)(C)C5CCC4(C)C3(C)CCC2(C)CC1 (centres unmarked) [Periandrin V]
16 | 1000 | CC[C@@H](C)C(=O)O[C@@H](C)[C@]1(O)CC[C@]2(O)[C@@H]3CC[C@H]4C[C@@H](O[C@@H]5C[C@H](O)[C@H](O[C@H]6C[C@H](OC)[C@H](O[C@H]7C[C@@H](OC)[C@H](O[C@H]8C[C@@H](OC)[C@H](O[C@@H]9O[C@H](C)[C@@H](O[C@@H]%10O[C@H](CO)[C@@H](O)[C@H](O)[C@H]%10O)[C@H](OC)[C@H]9O)[C@@H](C)O8)[C@@H](C)O7)[C@@H](C)O6)[C@@H](C)O5)CC[C@]4(C)[C@H]3C[C@@H](OC(C)=O)[C@]12C [Telosmoside A15]
17 | 1,500 | CC(C)=CCC[C@](C)(O)[C@@H]1CCC(C)=CC1=O [(+)-Hernandulcin]
18 | 400 | COc1ccc([C@H]2Cc3cccc(O)c3C(=O)O2)cc1O [Phyllodulcin]
19 | 95 | Periandrin II
20 | 600 | Polypodoside A
